Measured values as given in the supplement of paper PMC10307832.

What was measured:
Assay in all cases: relative viability (nuclei count vs DMSO), 5 days (fraction); higher = more cells survive
Imatinib + Pictilisib = compound: Cc1ccc(NC(=O)c2ccc(CN3CCN(C)CC3)cc2)cc1Nc1nccc(-c2cccnc2)n1 [Imatinib] + CS(=O)(=O)N1CCN(Cc2cc3nc(-c4cccc5[nH]ncc45)nc(N4CCOCC4)c3s2)CC1 [Pictilisib] (partner 1 µM)
Outline: (§1)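 One day after seeding in 1536-well plates, lung cancer cell lines were dosed by pin tool. Dosing was either single-drug or a fixed anchor-drug dose plus five library-drug doses (not always all listed) in √10 steps. After 5 days, nuclei were stained in one fix-and-stain step and counted on 4× images, and relative viability is the nuclei count of treated wells over that of vehicle wells, given as the median of duplicate plates.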

Imatinib + Alpelisib = compound: Cc1ccc(NC(=O)c2ccc(CN3CCN(C)CC3)cc2)cc1Nc1nccc(-c2cccnc2)n1 [Imatinib] + Cc1nc(NC(=O)N2CCC[C@H]2C(N)=O)sc1-c1ccnc(C(C)(C)C(F)(F)F)c1 [Alpelisib] (partner 2 µM)
Outline: as §1

Imatinib + Dasatinib = compound: Cc1ccc(NC(=O)c2ccc(CN3CCN(C)CC3)cc2)cc1Nc1nccc(-c2cccnc2)n1 [Imatinib] + Cc1nc(Nc2ncc(C(=O)Nc3c(C)cccc3Cl)s2)cc(N2CCN(CCO)CC2)n1 [Dasatinib] (partner 0.075 µM)
Outline: as §1

Imatinib + Trametinib = compound: Cc1ccc(NC(=O)c2ccc(CN3CCN(C)CC3)cc2)cc1Nc1nccc(-c2cccnc2)n1 [Imatinib] + CC(=O)Nc1cccc(-n2c(=O)n(C3CC3)c(=O)c3c(Nc4ccc(I)cc4F)n(C)c(=O)c(C)c32)c1 [Trametinib] (partner 0.02 µM)
Outline: as §1

Row | Cell Line | relative viability (Imatinib + Pictilisib; first compound 0.02 µM) | relative viability (Imatinib + Pictilisib; first compound 0.06325 µM) | relative viability (Imatinib + Pictilisib; first compound 0.2 µM) | relative viability (Imatinib + Pictilisib; first compound 0.6325 µM) | relative viability (Imatinib + Pictilisib; first compound 2 µM) | relative viability (Imatinib + Alpelisib; first compound 0.02 µM) | relative viability (Imatinib + Alpelisib; first compound 0.06325 µM) | relative viability (Imatinib + Alpelisib; first compound 0.2 µM) | relative viability (Imatinib + Alpelisib; first compound 0.6325 µM) | relative viability (Imatinib + Alpelisib; first compound 2 µM) | relative viability (Imatinib + Dasatinib; first compound 0.02 µM) | relative viability (Imatinib + Dasatinib; first compound 0.06325 µM) | relative viability (Imatinib + Dasatinib; first compound 0.2 µM) | relative viability (Imatinib + Dasatinib; first compound 0.6325 µM) | relative viability (Imatinib + Dasatinib; first compound 2 µM) | relative viability (Imatinib + Trametinib; first compound 0.02 µM) | relative viability (Imatinib + Trametinib; first compound 0.2 µM) | relative viability (Imatinib + Trametinib; first compound 0.6325 µM) | relative viability (Imatinib + Trametinib; first compound 2 µM) | relative viability (Imatinib + Trametinib; first compound 0.06325 µM)
1 | NCI-H2347 | 0.414 | 0.508 | 0.64 | 0.453 | 0.738 | 1.15 | 0.968 | 0.933 | 1.11 | 1.09 | 0.317 | 0.266 | 0.256 | 0.283 | 0.251 | 0.35 | 0.309 | 0.285 | 0.273 | –
2 | NCI-H1355 | 0.432 | – | 0.434 | 0.468 | 0.536 | 0.855 | – | 0.834 | 0.889 | 0.882 | 0.766 | – | 0.659 | 0.696 | 0.678 | 0.494 | 0.436 | – | 0.411 | –
3 | NCI-H1650 | 0.638 | 0.338 | 0.589 | 0.574 | 0.661 | – | – | – | – | – | 0.371 | 0.262 | 0.326 | 0.285 | 0.261 | 0.579 | 0.404 | 0.635 | 0.559 | 0.471
4 | NCI-H727 | 0.356 | 0.442 | 0.355 | 0.524 | 0.383 | 0.496 | 0.585 | 0.529 | 0.659 | – | 0.433 | – | 0.331 | 0.234 | 0.463 | 0.334 | 0.411 | 0.392 | 0.411 | –
5 | RERF-LC-KJ | 0.636 | 0.422 | 0.541 | 0.487 | 0.498 | 0.841 | 0.723 | 0.8 | – | 0.8 | 0.927 | 0.602 | 0.987 | 0.771 | 0.841 | 0.806 | 0.936 | 0.909 | 0.771 | 0.97
6 | PC-3 [JPC-3] | 0.715 | – | – | 0.774 | 0.653 | 1.08 | – | 1.03 | 1.05 | 0.979 | 1.1 | – | 0.955 | 0.931 | 0.778 | 0.719 | – | 0.724 | 0.621 | –
7 | PC-14 | 0.69 | – | 0.874 | 0.688 | 0.859 | 1.15 | – | 1.13 | 0.926 | 0.854 | 0.221 | 0.201 | 0.2 | 0.196 | 0.239 | 1.01 | 1.11 | 0.765 | 0.897 | 1.18
8 | ABC-1 | 0.685 | – | 0.669 | 0.914 | 0.679 | 1.1 | – | 1.35 | 1.13 | 0.888 | 0.624 | – | 0.689 | 0.522 | 0.523 | – | – | – | – | –
9 | SW 1573 | 0.623 | 0.501 | 0.528 | 0.561 | 0.483 | 0.826 | 0.785 | 1.13 | 0.842 | 0.927 | 0.525 | 0.314 | 0.604 | 0.517 | 0.531 | 0.614 | 0.619 | 0.618 | 0.631 | 0.565
10 | UMC-11 | 0.81 | 0.749 | 1 | 1.06 | 0.837 | 0.982 | 1.18 | 0.957 | 1.03 | 1.03 | 0.527 | 0.34 | 0.619 | 0.507 | 0.457 | 0.706 | 0.643 | 0.896 | 0.717 | 0.736
11 | NCI-H1793 | 0.272 | – | 0.332 | 0.412 | 0.413 | 0.721 | – | 0.801 | 0.73 | 0.674 | 0.421 | – | 0.388 | 0.368 | 0.388 | 0.472 | 0.582 | 0.404 | 0.368 | –
12 | ChaGo-K-1 | 0.88 | 0.497 | 0.589 | – | – | – | – | – | – | – | 0.58 | 0.51 | 0.522 | 0.515 | 0.579 | 0.927 | 0.833 | 0.81 | 0.871 | –
13 | A-427 | 0.749 | – | 0.692 | 0.739 | 0.663 | 1.11 | – | – | 1.1 | 1.06 | – | – | 0.798 | 0.805 | 0.714 | 0.745 | 0.757 | 0.76 | 0.712 | 0.786
14 | NCI-H358 | 0.292 | – | 0.326 | 0.275 | 0.347 | 0.799 | – | 0.841 | 0.759 | 0.868 | 0.151 | 0.13 | 0.153 | 0.163 | 0.135 | 0.14 | 0.129 | 0.139 | 0.121 | 0.143
15 | IA-LM | 0.431 | 0.497 | 0.317 | 0.586 | 0.373 | 0.838 | 1.1 | 0.928 | 0.967 | 0.702 | – | – | – | – | – | – | – | – | – | –
16 | NCI-H1703 | – | 0.268 | 0.219 | 0.256 | 0.235 | 0.355 | 0.259 | 0.206 | 0.242 | 0.143 | – | – | – | – | – | – | – | – | – | –
17 | NCI-H2342 | – | – | – | – | – | – | – | – | – | – | 0.289 | 0.326 | 0.321 | 0.321 | 0.316 | 0.847 | 0.869 | 0.828 | 0.853 | 0.814
18 | NCI-H2126 | 0.507 | – | 0.484 | 0.452 | 0.475 | – | – | – | – | – | 0.705 | – | 0.537 | 0.457 | 0.517 | 0.525 | 0.565 | 0.57 | 0.574 | 0.43
19 | Calu-6 | 1.18 | 1.11 | 1.16 | 0.887 | 0.89 | 1.1 | – | 1.11 | 1.01 | 0.946 | – | – | – | – | – | – | – | – | – | –
20 | HCC-44 | 0.604 | 0.653 | 0.974 | 0.548 | 0.529 | 0.895 | 0.819 | 0.941 | 0.71 | 0.791 | – | – | – | – | – | 1.1 | 1.24 | 0.94 | 1.11 | –
21 | NCI-H1299 | 0.868 | 1.07 | 0.833 | 0.954 | 0.776 | 1.16 | 1.1 | 1.14 | 1.12 | 0.983 | – | – | – | – | – | – | – | – | – | –
22 | EBC-1 | 0.425 | 0.405 | 0.387 | 0.304 | 0.334 | 0.763 | – | 0.893 | 0.823 | 0.634 | – | – | – | – | – | – | – | – | – | –
